Test results: the supplement of paper PMC10307832

Tests used:
Assay in all cases: relative viability (nuclei count vs DMSO), 5 days (fraction); higher = more cells survive
[1] = compound: COC1=C(C=C(C=C1)C2=CC3=NC=CN3C(=N2)NC4=C(C=CC=N4)C(=O)N)OC [BAY61-3606] + N=C(N)NC(=N)NCCc1ccccc1 [Phenformin] (partner 250 µM)
In short: (§1)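 For relative viability, nuclei counts in treated wells were divided by those in vehicle wells. Lung cancer cell lines had been pin-tool dosed in 1536-well plates the day after seeding and cultured for 5 days, then fixed and stained in one step (final 0.05% Triton X-100, 1% formaldehyde, 1 ug/ml Hoechst) and imaged at 4×. Doses were one drug alone or a fixed anchor-drug dose plus five library-drug doses (not always all listed) in √10 steps, and values are duplicate-plate medians.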

[2] = compound: COC1=C(C=C(C=C1)C2=CC3=NC=CN3C(=N2)NC4=C(C=CC=N4)C(=O)N)OC [BAY61-3606] + O=C(CCCCCCC(=O)Nc1ccccc1)NO [Vorinostat] (partner 1 µM)
In short: as §1

[3] = compound: COc1cccc2c1C(=O)c1c(O)c3c(c(O)c1C2=O)C[C@@](O)(C(=O)CO)C[C@@H]3O[C@H]1C[C@H](N)[C@H](O)[C@H](C)O1 [Doxorubicin] + CS(=O)(=O)CCNCc1ccc(-c2ccc3ncnc(Nc4ccc(OCc5cccc(F)c5)c(Cl)c4)c3c2)o1 [Lapatinib] (partner 2 µM)
In short: as §1

[4] = compound: COc1cccc2c1C(=O)c1c(O)c3c(c(O)c1C2=O)C[C@@](O)(C(=O)CO)C[C@@H]3O[C@H]1C[C@H](N)[C@H](O)[C@H](C)O1 [Doxorubicin] + O=C(CCCCCCC(=O)Nc1ccccc1)NO [Vorinostat] (partner 1 µM)
In short: as §1

Cell Line	relative viability ([1]; first compound 0.02 µM)	relative viability ([1]; first compound 0.06325 µM)	relative viability ([1]; first compound 0.2 µM)	relative viability ([1]; first compound 0.6325 µM)	relative viability ([1]; first compound 2 µM)	relative viability ([2]; first compound 0.02 µM)	relative viability ([2]; first compound 0.06325 µM)	relative viability ([2]; first compound 0.2 µM)	relative viability ([2]; first compound 0.6325 µM)	relative viability ([2]; first compound 2 µM)	relative viability ([3]; first compound 0.001 µM)	relative viability ([3]; first compound 0.003162 µM)	relative viability ([3]; first compound 0.01 µM)	relative viability ([3]; first compound 0.03162 µM)	relative viability ([3]; first compound 0.1 µM)	relative viability ([4]; first compound 0.001 µM)	relative viability ([4]; first compound 0.003162 µM)	relative viability ([4]; first compound 0.01 µM)	relative viability ([4]; first compound 0.03162 µM)	relative viability ([4]; first compound 0.1 µM)
NCI-H2023	0.491	0.369	0.386	0.438	0.322	0.856	0.671	0.638	0.82	0.468	0.226	0.734	0.252	0.134	0.11	0.463	0.657	0.272	0.0749	0.109
LU99A	0.938	0.759	0.735	0.755	0.708	0.548	0.399	0.48	0.434	0.401	1.01	1.16	0.954	0.583	0.788	0.518	0.474	0.442	0.409	0.519
NCI-H322M	0.824	0.71	0.812	0.773	0.626	0.985	0.872	0.974	0.866	0.74	0.636	0.563	0.547	0.521	0.569	1.01	0.836	0.85	0.769	0.57
LOU-NH91	0.716	0.697	0.695	0.702	0.649	1.03	0.796	0.871	0.915	0.858	–	0.736	0.765	0.579	0.599	–	0.892	0.853	0.615	0.331
NCI-H727	0.68	0.554	0.542	0.553	0.541	1.03	1.12	1.07	1.17	1.24	0.76	0.784	0.792	0.666	0.681	1.33	1.09	–	1.13	1.19
RERF-LC-KJ	0.417	0.404	0.424	0.467	0.343	0.701	0.684	0.704	0.881	0.614	0.905	0.817	0.863	0.759	0.815	0.672	0.721	0.632	0.469	0.487
H3255	0.351	0.342	0.371	0.399	0.342	0.817	0.8	0.749	0.75	0.86	0.261	0.262	0.247	0.259	0.228	–	0.913	0.698	0.88	0.428
NCI-H1793	0.363	0.216	–	0.41	0.271	0.842	0.83	0.684	1.04	0.989	–	0.93	0.643	0.537	0.659	–	0.867	0.728	0.659	0.731
LXF-289	0.494	0.526	0.462	0.549	0.491	0.802	0.839	0.666	0.849	0.782	0.865	0.886	0.864	0.891	0.823	0.703	0.787	0.745	0.805	0.744
HOP-62	0.629	0.645	0.635	0.667	0.534	–	0.544	0.538	0.667	0.397	0.811	1.15	1.02	1.1	0.853	0.515	0.605	0.599	0.538	0.572
LK-2	0.389	0.307	0.368	0.463	0.221	0.264	0.297	0.301	0.327	0.306	0.879	0.74	0.804	0.724	0.81	0.318	0.311	0.266	0.23	0.307
HCC-44	0.189	0.134	0.141	0.251	0.182	1.05	1.05	1	0.966	1.26	0.988	1.02	0.954	0.979	0.815	1.1	1.15	1.1	1.12	1.12
BEN	0.272	0.257	0.294	0.284	0.255	0.545	0.577	0.573	0.546	0.588	1.01	0.608	0.697	0.474	0.644	0.617	0.612	0.467	0.58	0.502
NCI-H2405	0.429	0.259	0.383	0.38	0.41	1.17	1.02	1.15	0.968	0.824	–	1.07	1.05	0.639	0.301	1.2	1.17	0.971	0.804	0.323
NCI-H1395	0.459	0.371	0.444	0.469	0.414	0.736	0.705	0.595	0.705	0.706	0.921	0.986	0.949	0.803	0.607	0.551	0.688	0.825	0.572	0.493
201T	0.461	0.425	0.449	0.511	0.444	1.02	0.962	1.05	1.09	1.06	0.942	0.968	1.04	1.01	1.03	0.892	0.996	0.96	1.06	0.942
